Measured values reported in US11932645B2, “Substituted pyrazolo[1,5-a]pyrimidines and their use in the treatment of medical disorders” (Bial—R&D Investments, S.A., priority 2014, dated 2024).

Legend:
[1] = molecular target: T1, glucocerebrosidase (Gcase) (Homo sapiens, UniProt P04062); assay: Glucocerebrosidase (Gcase) activation assay, 4-methylumbelliferyl-beta-D-glucopyranoside substrate, with saposin C; type: biochemical; details: 10 nM GCase, 100 nM saposin C, pH 4.7
T1 sequence (P04062 40-536): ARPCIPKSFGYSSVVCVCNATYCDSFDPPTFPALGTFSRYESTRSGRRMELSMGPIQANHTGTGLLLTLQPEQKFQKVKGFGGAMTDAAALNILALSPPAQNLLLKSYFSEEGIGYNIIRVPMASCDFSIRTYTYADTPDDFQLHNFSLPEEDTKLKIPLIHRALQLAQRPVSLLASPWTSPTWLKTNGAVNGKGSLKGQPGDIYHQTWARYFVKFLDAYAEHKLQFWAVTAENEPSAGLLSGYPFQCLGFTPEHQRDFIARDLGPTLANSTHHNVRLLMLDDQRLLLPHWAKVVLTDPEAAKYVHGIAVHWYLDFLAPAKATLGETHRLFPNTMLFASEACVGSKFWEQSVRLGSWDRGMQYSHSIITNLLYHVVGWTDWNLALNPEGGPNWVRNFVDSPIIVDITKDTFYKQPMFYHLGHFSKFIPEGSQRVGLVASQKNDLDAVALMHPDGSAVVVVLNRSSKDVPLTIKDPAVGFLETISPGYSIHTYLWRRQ
Description: The ability of exemplary compounds to activate glucocerebrosidase (Gcase) was measured.
A 484 μL aliquot of a 1.0 mg/mL solution of phosphatidylserine (PS) (Sigma P7769) in chloroform was evaporated under a stream of nitrogen for 1 hour. The lipid film was dissolved over 4 minutes of vigorous vortexing in 40 mL of 176 mM K2HPO4/50 mM citric acid (pH 4.7) containing 7.5 μL of triton X-100, resulting in a mixed micellar preparation with a composition of 0.32 mM triton and 0.37 mol % PS. 4-Methylumbelliferyl-beta-D-glucopyranoside (ACROS-337025000) was dissolved in the micellar solution to a final concentration of 2 mM for use as the reaction substrate.
Test compounds were diluted to the desired concentrations with dimethylsulfoxide (DMSO) from 10 mM stocks, and 0.41 μL of the DMSO compound mixture was added to 100 μL of micellar solution containing 10 nM GCase and 100 nM saposin C (Enzo ALX-201-262-C050). Pre-incubation was allowed to occur for 30 minutes at room temperature, after which the reaction was initiated by combining 25 μL of substrate solution with 25 μL of compound/GCase/saposin mixture. The reaction proceeded for 15 minutes at room temperature and was stopped by adding 150 μL of 1M glycine, pH 12.5. The endpoint of the reaction was monitored by measuring fluorescence intensity (excitation: 365 nm; emission: 440 nm) on a SpectraMax i3 instrument (Molecular Devices). Test compounds were screened at 1.0 and 0.1 μM final concentration, and subsequent 8-point dose response curves were obtained using 3-fold dilutions from a maximum final concentration of 5 μM.
For experiments in which the test compound was used at a concentration of 1.0 μM, the symbol “+” indicates less than 30% Gcase activation; the symbol “++” indicates Gcase activation in the range of 30% up to 60%; and the symbol “+++” indicates Gcase activation greater than 60%. For experiments in which the test compound was used at a concentration of 0.1 μM, the symbol “*” indicates less than 10% Gcase activation; the symbol “**” indicates Gcase activation in the range of 10% up to 20%; and the symbol “***” indicates greater than 20% Gcase activation.

[2] = Compound solubility in water; type: physicochemical

Structure (SMILES)	Percent Gcase Activation 0.1 μM Test Compound [1]	Percent Gcase Activation 1 μM Test Compound [1]	Compound Solubility in Water [2] [µg/mL]
Cc1cc(C)n2ncc(C(=O)Nc3ccc(-c4ccc[nH]4)cc3)c2n1 [III-57]	** (Gcase activation in the range of 10% up to 20%)	+ (less than 30% Gcase activation)	<1.5
Cc1cc(C)n2ncc(C(=O)Nc3ccc(-c4ccc[nH]4)cc3)c2n1 [III-76]	** (Gcase activation in the range of 10% up to 20%)	++ (Gcase activation in the range of 30% up to 60%)	0.01
Cc1cc(C)n2ncc(C(=O)Nc3ccc4nc(C)[nH]c4c3)c2n1 [III-45]	* (less than 10% Gcase activation)	+ (less than 30% Gcase activation)	
Cc1cc(C)n2ncc(CNc3ccc(-c4cocn4)nc3)c2n1 [III-24]	* (less than 10% Gcase activation)	+ (less than 30% Gcase activation)	
Cc1cc(C)n2ncc(C(=O)Nc3ccc(Cl)c(C(C)Oc4cccnc4)c3)c2n1 (stereo not drawn) [III-75]	* (less than 10% Gcase activation)	+++ (Gcase activation greater than 60%)	
COCC#Cc1ccc(NCc2cnn3c(C)cc(C)nc23)cc1 [III-29]	* (less than 10% Gcase activation)	+ (less than 30% Gcase activation)	
Cc1cc(C)n2ncc(C(=O)Nc3ccc4[nH]c(-c5ccco5)nc4c3)c2n1 [III-49]	* (less than 10% Gcase activation)	+ (less than 30% Gcase activation)	
C#CC1CCC(NC(=O)c2cnn3c(C)cc(C)nc23)CC1 (stereo not drawn) [III-13]	* (less than 10% Gcase activation)	+ (less than 30% Gcase activation)	
Cc1cc(C)n2ncc(C(=O)Nc3ccc(Cl)c(COc4cccnc4)c3)c2n1 [III-51]	** (Gcase activation in the range of 10% up to 20%)	+++ (Gcase activation greater than 60%)	
Cc1cc(C)n2ncc(C(=O)Nc3ccc(-c4cnsc4)cc3)c2n1 [III-16]	** (Gcase activation in the range of 10% up to 20%)	+++ (Gcase activation greater than 60%)	
CCCCCO[C@H]1CC[C@H](NC(=O)c2cnn3c(C)cc(C)nc23)CC1 [III-59]	** (Gcase activation in the range of 10% up to 20%)	+++ (Gcase activation greater than 60%)	
Cc1cc(C)n2ncc(C(=O)Nc3ccc4[nH]c(C)cc4c3)c2n1 [III-40]	* (less than 10% Gcase activation)	+ (less than 30% Gcase activation)	
Cc1cc(C)n2ncc(C(=O)Nc3ccc(-c4ccncc4)cc3)c2n1 [III-56]	* (less than 10% Gcase activation)	+ (less than 30% Gcase activation)	
Cc1cc(C)n2ncc(C(=O)Nc3ccc(-c4cnn(C)c4)cc3)c2n1 [III-54]	* (less than 10% Gcase activation)	++ (Gcase activation in the range of 30% up to 60%)	
Cc1cc(C)n2ncc(C(=O)N[C@@H](C)c3ccccc3F)c2n1 [III-60]	* (less than 10% Gcase activation)	+++ (Gcase activation greater than 60%)	
Cc1cc(C)n2ncc(C(=O)Nc3ccc(CCCC(=O)O)cc3)c2n1 [III-34]	* (less than 10% Gcase activation)	+ (less than 30% Gcase activation)	
Cc1cc(C)n2ncc(C(=O)N[C@H](C)c3ccc(F)cc3)c2n1 [III-65]	* (less than 10% Gcase activation)	++ (Gcase activation in the range of 30% up to 60%)	
